The source of these data is ChEMBL document CHEMBL1145691, “Hypoglycemic activity of some triterpenoid glycosides” (1997).

What all share (format): functional
Holding throughout (conditions): route intraperitoneal

Experiment [1] has as its system Mus musculus. Kind of experiment: Hypoglycemic activity in normal ddY mouse at 5 mg/kg, ip assessed as blood glucose level per 100 mL blood after 4 hrs.
Experiment [2] deals with Mus musculus. The experiment in a line: Hypoglycemic activity in normal ddY mouse at 5 mg/kg, ip assessed as blood glucose level per 100 mL blood after 7 hrs.
Experiment [3] concerns Mus musculus. Kind of experiment: Hypoglycemic activity in diabetic KK-Ay mouse at 5 mg/kg, ip assessed as blood glucose level per 100 mL blood after 4 hrs.
The subject of experiment [4] is Mus musculus. Kind of experiment: Hypoglycemic activity in diabetic KK-Ay mouse at 5 mg/kg, ip assessed as blood glucose level per 100 mL blood after 7 hrs.
Experiment [5] relates to Mus musculus. Kind of experiment: Hypoglycemic activity in normal ddY mouse at 1 mg/kg, ip assessed as blood glucose level per 100 mL blood after 4 hrs.
For experiment [6], the system named is Mus musculus. The experiment in a line: Hypoglycemic activity in normal ddY mouse at 1 mg/kg, ip assessed as blood glucose level per 100 mL blood after 7 hrs.
For experiment [7], the system named is Mus musculus. Kind of experiment: Hypoglycemic activity in diabetic KK-Ay mouse at 1 mg/kg, ip assessed as blood glucose level per 100 mL blood after 4 hrs.
Experiment [8] concerns Mus musculus. Kind of experiment: Hypoglycemic activity in diabetic KK-Ay mouse at 1 mg/kg, ip assessed as blood glucose level per 100 mL blood after 7 hrs.
Experiment [9] concerns Mus musculus. The experiment in a line: Hypoglycemic activity in normal ddY mouse at 50 mg/kg, ip assessed as blood glucose level per 100 mL blood after 4 hrs.
Experiment [10] relates to Mus musculus. Kind of experiment: Hypoglycemic activity in normal ddY mouse at 50 mg/kg, ip assessed as blood glucose level per 100 mL blood after 7 hrs.
Experiment [11] has as its system Mus musculus. Kind of experiment: Hypoglycemic activity in diabetic KK-Ay mouse at 50 mg/kg, ip assessed as blood glucose level per 100 mL blood after 4 hrs.
The test system of experiment [12] is Mus musculus. Kind of experiment: Hypoglycemic activity in diabetic KK-Ay mouse at 50 mg/kg, ip assessed as blood glucose level per 100 mL blood after 7 hrs.

Regarding `COc1ccc(/C=C/C(=O)O[C@@H]2[C@H](O)[C@@H](O[C@@H]3O[C@@H](C)[C@H](O[C@@H]4OC[C@@H](O[C@@H]5O[C@H](CO)[C@H](O)[C@H](O)[C@H]5O)[C@H](O)[C@H]4O)[C@@H](O)[C@H]3O)[C@H](OC(=O)[C@]34CCC(C)(C)C[C@@H]3C3=CC[C@@H]5[C@@]6(C)C[C@H](O[C@@H]7O[C@H](CO)[C@@H](O)[C@H](O)[C@H]7O)[C@H](O)[C@@](C)(C(=O)O)[C@@H]6CC[C@@]5(C)[C@]3(CO)CC4)O[C@@H]2C)cc1` [DESMETHOXYSENEGIN II], the Activity with Mus musculus [1] came to 199 mg/dL; in the experiment with Mus musculus [2], 195 mg/dL; in the experiment on Mus musculus [3], 306 mg/dL; with Mus musculus [4], 325 mg/dL.
As to `COc1ccc(/C=C/C(=O)O[C@@H]2[C@H](O[C@@H]3O[C@@H](C)[C@H](O)[C@@H](O)[C@H]3O)[C@@H](O[C@@H]3O[C@@H](C)[C@H](O[C@@H]4OC[C@@H](O[C@@H]5O[C@H](CO)[C@H](O)[C@H](O)[C@H]5O)[C@H](O)[C@H]4O)[C@@H](O)[C@H]3O)[C@H](OC(=O)[C@]34CCC(C)(C)C[C@@H]3C3=CC[C@@H]5[C@@]6(C)C[C@H](O[C@@H]7O[C@H](CO)[C@@H](O)[C@H](O)[C@H]7O)[C@H](O)[C@@](C)(C(=O)O)[C@@H]6CC[C@@]5(C)[C@]3(CO)CC4)O[C@@H]2C)cc1` [SENEGIN III], the Activity was 167 mg in the experiment on Mus musculus [5]; 172 mg with Mus musculus [6]; 151 mg/dL in the experiment with Mus musculus [1]; 160 mg/dL in the experiment on Mus musculus [2]; 195 mg in the experiment with Mus musculus [7]; 210 mg in the experiment with Mus musculus [8]. The Activity amounted to 204 mg/dL with Mus musculus [3] and 146 mg/dL with Mus musculus [4].
Regarding `COc1ccc(/C=C/C(=O)O[C@@H]2[C@H](O)[C@@H](O[C@@H]3O[C@@H](C)[C@H](O[C@@H]4OC[C@@H](O[C@@H]5O[C@H](CO)[C@H](O)[C@H](O)[C@H]5O)[C@H](O)[C@H]4O)[C@@H](O)[C@H]3O)[C@H](OC(=O)[C@]34CCC(C)(C)C[C@@H]3C3=CCC5[C@@]6(C)C[C@H](O[C@@H]7O[C@H](CO)[C@@H](O)[C@H](O)[C@H]7O)[C@H](O)[C@@](C)(C(=O)O)[C@@H]6CC[C@@]5(C)[C@]3(CO)CC4)O[C@@H]2C)cc1OC` (stereo partly specified) [SENEGIN II], the Activity with Mus musculus [5] is given as 139 mg; in the experiment with Mus musculus [6], 149 mg; in the experiment on Mus musculus [1] it was 137 mg/dL; in the experiment with Mus musculus [2], 140 mg/dL; with Mus musculus [7] it was 226 mg; in the experiment on Mus musculus [8] it was 305 mg. For the same molecule, the Activity in the experiment with Mus musculus [3] is listed as 217 mg/dL; in the experiment on Mus musculus [4], 182 mg/dL.
Regarding `COc1ccc(/C=C/C(=O)O[C@@H]2[C@H](O[C@@H]3O[C@@H](C)[C@H](O)[C@@H](O)[C@H]3O)[C@@H](O[C@@H]3O[C@@H](C)[C@H](O[C@@H]4OC[C@@H](O[C@@H]5O[C@H](CO)[C@H](O)[C@H](O)[C@H]5O)[C@H](O)[C@H]4O)[C@@H](O[C@H]4OC[C@](O)(CO)[C@H]4O)[C@H]3O)[C@H](OC(=O)[C@]34CCC(C)(C)C[C@@H]3C3=CC[C@@H]5[C@@]6(C)C[C@H](O[C@@H]7O[C@H](CO)[C@@H](O)[C@H](O)[C@H]7O)[C@H](O)[C@@](C)(C(=O)O)[C@@H]6CC[C@@]5(C)[C@]3(CO)CC4)O[C@@H]2C)cc1` [SENEGIN IV], the Activity in the experiment on Mus musculus [5] was 177 mg; in the experiment with Mus musculus [6], 171 mg; with Mus musculus [1] it was 187 mg/dL; with Mus musculus [2], 169 mg/dL; in the experiment with Mus musculus [7] it was 207 mg; in the experiment with Mus musculus [8], 276 mg. The Activity in the experiment with Mus musculus [3] was determined as 276 mg/dL; with Mus musculus [4], 388 mg/dL.
As for `COc1cc(/C=C/C(=O)OC[C@@]2(O[C@H]3O[C@H](COC(C)=O)[C@@H](OC(=O)/C=C/c4ccc(O)c(OC)c4)[C@H](O[C@@H]4O[C@H](COC(C)=O)[C@@H](O[C@@H]5O[C@H](CO)[C@@H](O)[C@H](O)[C@H]5O)[C@H](O)[C@H]4O)[C@H]3O[C@@H]3O[C@H](CO)[C@@H](O)[C@H](O)[C@H]3O)O[C@H](CO)[C@@H](O)[C@@H]2OC(=O)c2ccccc2)ccc1O` [SENEGOSE A], the Activity in the experiment on Mus musculus [1] was 197 mg/dL; in the experiment with Mus musculus [2] it was 199 mg/dL; with Mus musculus [3] it was 401 mg/dL; with Mus musculus [4], 368 mg/dL.
`CCCCNC(=O)NS(=O)(=O)c1ccc(C)cc1` [TOLBUTAMIDE]: the Activity stood at 160 mg in the experiment with Mus musculus [9], 170 mg in the experiment with Mus musculus [10], 495 mg in the experiment with Mus musculus [11] and 370 mg in the experiment on Mus musculus [12].
